For 18 compounds, IC50 results are on record in US9309263B2, “Fused multi-cyclic sulfone compounds as inhibitors of beta-secretase and methods of use thereof” (AMGEN INC., priority 2013, dated 2016).

Read-outs that look alike come from different tables or passages of the source.

For orientation: IC50 means the concentration needed to halve the response being measured.

The target of one assay is Cathepsin D (Cat D) (Homo sapiens, UniProt P07339). Kind of assay: In vitro enzymatic Cathepsin D (Cat D) FRET assay. It counts as biochemical. The method in brief:
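FRET peptide substrate (20 nM) is cleaved by CHO-derived recombinant enzyme (9 nM) for 1 h after a 1 h inhibitor pre-incubation, at pH 3.5 in citrate buffer with 5 mM CHAPS and 10% DMSO. Tris addition ends the reaction; fluorescence measured at 500 nm excitation, 580 nm emission.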

Assay [1] deals with Beta Secretase enzyme (BACE) (Homo sapiens, UniProt P56817). Nature of the assay: In vitro enzymatic BACE FRET assay. It counts as biochemical. The following applies: average IC50, in vitro enzymatic BACE FRET assay; read-out: BACE1 FRET assay IC50. The method, boiled down:
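Cleavage of a quenched 50 nM FRET peptide substrate, read as fluorescence (excitation 488 nm, […]) after 1 h and Tris quench to neutrality. Buffer: 0.05 M acetate pH 4.2 with 10% DMSO and 100 uM genapol. Inhibitor dilutions were pre-incubated 1 h with 0.2 nM enzyme.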

Assay [2] deals with Aβ 40 in conditioned medium of cells stably expressing Amyloid Precursor Protein (APP). Kind of assay: In vitro BACE cell-based assay (Aβ 40 sandwich ELISA). To be noted: Homo sapiens, HEK293; average IC50, HEK cell assay, Aβ 40 readout. The method, boiled down:
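Aβ40 in conditioned medium measured by pAb40/biotin-6E10 sandwich ELISA with time-resolved europium fluorescence, after 24 h exposure of stable APP cells to compounds (10-point series starting 100 μM or 10 μM; 0.1% DMSO). IC50 fitted from percent of control against concentration.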

Where [3] appears, read: Cathepsin D FRET assay, read-out: CatD IC50.

Chain of Beta Secretase enzyme (BACE) (P56817 46-501): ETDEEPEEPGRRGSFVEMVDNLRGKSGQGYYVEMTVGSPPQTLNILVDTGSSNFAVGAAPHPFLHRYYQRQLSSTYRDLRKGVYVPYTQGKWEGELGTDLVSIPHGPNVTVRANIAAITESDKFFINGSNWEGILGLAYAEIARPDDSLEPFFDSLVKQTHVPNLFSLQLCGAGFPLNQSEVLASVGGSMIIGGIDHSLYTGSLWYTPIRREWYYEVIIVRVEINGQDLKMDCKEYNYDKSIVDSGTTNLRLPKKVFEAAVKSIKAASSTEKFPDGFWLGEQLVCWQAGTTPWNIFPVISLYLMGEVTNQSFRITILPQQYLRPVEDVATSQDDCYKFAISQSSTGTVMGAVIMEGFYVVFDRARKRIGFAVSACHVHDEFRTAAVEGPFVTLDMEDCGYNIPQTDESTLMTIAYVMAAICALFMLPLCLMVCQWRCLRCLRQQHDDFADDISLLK
Chain of Cathepsin D (Cat D) (P07339 65-412, species assumed): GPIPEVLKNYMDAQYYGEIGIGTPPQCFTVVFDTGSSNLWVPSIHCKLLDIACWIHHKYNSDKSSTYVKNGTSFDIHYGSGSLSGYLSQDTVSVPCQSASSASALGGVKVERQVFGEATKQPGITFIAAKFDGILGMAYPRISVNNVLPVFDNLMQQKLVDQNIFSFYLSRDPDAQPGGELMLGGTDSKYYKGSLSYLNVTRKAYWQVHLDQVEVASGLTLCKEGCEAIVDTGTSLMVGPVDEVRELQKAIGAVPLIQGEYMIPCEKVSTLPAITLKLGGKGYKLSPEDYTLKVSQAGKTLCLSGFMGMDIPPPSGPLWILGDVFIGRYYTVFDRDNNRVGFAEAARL

In the case of `CC1(C)C(N)=N[C@]2(C)c3cc(NC(=O)c4ccc(OCC(F)F)cn4)ccc3OCC[C@H]2S1(=O)=O` [Example 96, N-((4aR,11bR)-2-amino-3,3,11b-trimethyl-4,4-dioxido-4a,5,6,11b-tetrahydro-3H-[1]benzoxepino[4,5-b][1,4]thiazin-10-yl)-5-(2,2-difluoroethoxy)-2-pyridinecarboxamide], the IC50 on Cathepsin D (Cat D) (setting [3]) was 1180 µM; in assay [1], 0.033 µM; in assay [2], 0.098 µM.

For the compound `CC1(C)C(N)=N[C@]2(C)c3cc(NC(=O)c4ccc(OCC(F)(F)F)cn4)ccc3OCC[C@H]2S1(=O)=O` [Example 97, N-((4aR,11bR)-2-amino-3,3,11b-trimethyl-4,4-dioxido-4a,5,6,11b-tetrahydro-3H-[1]benzoxepino[4,5-b][1,4]thiazin-10-yl)-5-(2,2,2-trifluoroethoxy)-2-pyridinecarboxamide], the IC50 on Cathepsin D (Cat D) (setting [3]) was 974 µM; in assay [1] it was 0.022 µM; in assay [2] it was 0.069 µM.

For the compound `CC#CCOc1cnc(C(=O)Nc2ccc3c(c2)[C@@]2(C)N=C(N)C(C)(C)S(=O)(=O)[C@@H]2CC(C)(C)O3)cn1` [Example 98, N-((4aR,11bR)-2-amino-3,3,6,6,11b-pentamethyl-4,4-dioxido-4a,5,6,11b-tetrahydro-3H-[1]benzoxepino[4,5-b][1,4]thiazin-10-yl)-5-(2-butyn-1-yloxy)-2-pyrazinecarboxamide], the IC50 at Cathepsin D (Cat D) (setting [3]) turned out to be 318 µM; in assay [1] it was 0.002 µM; in assay [2] it was 0.0005 µM.

Regarding `Cc1cc(C#N)cnc1C(=O)Nc1ccc2c(c1)[C@@]1(C)N=C(N)C(C)(C)S(=O)(=O)[C@@H]1CC(C)(C)O2` [Example 99, N-((4aR,11bR)-2-amino-3,3,6,6,11b-pentamethyl-4,4-dioxido-4a,5,6,11b-tetrahydro-3H-[1]benzoxepino[4,5-b][1,4]thiazin-10-yl)-5-cyano-3-methyl-2-pyridinecarboxamide], the 50% inhibitory concentration (IC50) at Cathepsin D (Cat D) (setting [3]) was > 400 µM; in assay [1] it was 0.008 µM; in assay [2], 0.002 µM.

As to `COc1cnc(C(=O)Nc2ccc3c(c2)[C@@]2(C)N=C(N)C(C)(C)S(=O)(=O)[C@@H]2CC(C)(C)O3)cn1` [Example 100, N-((4aR,11bR)-2-amino-3,3,6,6,11b-pentamethyl-4,4-dioxido-4a,5,6,11b-tetrahydro-3H-[1]benzoxepino[4,5-b][1,4]thiazin-10-yl)-5-methoxy-2-pyrazinecarboxamide], the IC50 on Cathepsin D (Cat D) (setting [3]) was 1340 µM; on Cathepsin D (Cat D) (text summary referring to data in Table 2), > 1200 µM; in assay [1], 0.025 µM; in assay [2], 0.012 µM.

For the compound `COc1cnc(C(=O)Nc2ccc3c(c2)[C@@]2(C)N=C(N)C(C)(C)S(=O)(=O)[C@@H]2CC(C)(C)O3)c(C)n1` [Example 101, N-((4aR,11bR)-2-amino-3,3,6,6,11b-pentamethyl-4,4-dioxido-4a,5,6,11b-tetrahydro-3H-[1]benzoxepino[4,5-b][1,4]thiazin-10-yl)-5-methoxy-3-methyl-2-pyrazinecarboxamide], the IC50 is 835 µM on Cathepsin D (Cat D) (setting [3]), 0.029 µM in assay [1] and 0.019 µM in assay [2].

On to `CC#CCOc1cnc(C(=O)Nc2ccc3c(c2)[C@@]2(C)N=C(N)C(C)(C)S(=O)(=O)[C@H]2CC(C)(C)O3)cn1` [Example 102, N-((4aS,11bR)-2-amino-3,3,6,6,11b-pentamethyl-4,4-dioxido-4a,5,6,11b-tetrahydro-3H-[1]benzoxepino[4,5-b][1,4]thiazin-10-yl)-5-(2-butyn-1-yloxy)-2-pyrazinecarboxamide], for which the values for the IC50 (on Cathepsin D (Cat D) (setting [3]); in assay [1]; in assay [2]) were 284 µM, 0.001 µM and 0.002 µM, respectively.

Consider `Cc1cc(C(F)(F)F)cnc1C(=O)Nc1ccc2c(c1)[C@@]1(C)N=C(N)C(C)(C)S(=O)(=O)[C@H]1CC(C)(C)O2` [Example 103, N-((4aS,11bR)-2-amino-3,3,6,6,11b-pentamethyl-4,4-dioxido-4a,5,6,11b-tetrahydro-3H-[1]benzoxepino[4,5-b][1,4]thiazin-10-yl)-3-methyl-5-(trifluoromethyl)-2-pyridinecarboxamide], for which the IC50 on Cathepsin D (Cat D) (setting [3]) is 143 µM; in assay [1], 0.018 µM; in assay [2], 0.023 µM.

As for `Cc1cc(C(F)(F)F)cnc1C(=O)Nc1ccc2c(c1)[C@@]1(CF)N=C(N)C(C)(C)S(=O)(=O)[C@H]1C[C@H](C)O2` [Example 105, N-((4aS,6S,11bS)-2-amino-11b-(fluoromethyl)-3,3,6-trimethyl-4,4-dioxido-4a,5,6,11b-tetrahydro-3H-[1]benzoxepino[4,5-b][1,4]thiazin-10-yl)-3-methyl-5-(trifluoromethyl)-2-pyridinecarboxamide], the IC50 at Cathepsin D (Cat D) (setting [3]) is 1480 µM; in assay [1], 0.004 µM; in assay [2], 0.013 µM.

Regarding `COc1cnc(C(=O)Nc2ccc3c(c2)[C@@]2(CF)N=C(N)C(C)(C)S(=O)(=O)[C@@H]2C[C@H](C)O3)cn1` [Example 107, N-((4aR,6S,11bS)-2-amino-11b-(fluoromethyl)-3,3,6-trimethyl-4,4-dioxido-4a,5,6,11b-tetrahydro-3H-[1]benzoxepino[4,5-b][1,4]thiazin-10-yl)-5-methoxy-2-pyrazinecarboxamide], the IC50 on Cathepsin D (Cat D) (setting [3]) was > 400 µM; in assay [1], 0.095 µM; in assay [2], 0.11 µM.

For the compound `COc1cnc(C(=O)Nc2ccc3c(c2)[C@@]2(CF)N=C(N)C(C)(C)S(=O)(=O)[C@H]2C[C@H](C)O3)cn1` [Example 108, N-((4aS,6S,11bS)-2-amino-11b-(fluoromethyl)-3,3,6-trimethyl-4,4-dioxido-4a,5,6,11b-tetrahydro-3H-[1]benzoxepino[4,5-b][1,4]thiazin-10-yl)-5-methoxy-2-pyrazinecarboxamide], the IC50 was 388 µM at Cathepsin D (Cat D) (setting [3]), 0.013 µM in assay [1] and 0.018 µM in assay [2].

On to `C[C@H]1C[C@H]2[C@](CF)(N=C(N)C(C)(C)S2(=O)=O)c2cc(Nc3nccc4cc(C#N)cnc34)ccc2O1` [Example 109, 8-(((4aS,6S,11bS)-2-amino-11b-(fluoromethyl)-3,3,6-trimethyl-4,4-dioxido-4a,5,6,11b-tetrahydro-3H-[1]benzoxepino[4,5-b][1,4]thiazin-10-yl)amino)-1,7-naphthyridine-3-carbonitrile], for which the IC50 was > 400 µM at Cathepsin D (Cat D) (setting [3]), 0.003 µM in assay [1] and 0.008 µM in assay [2].

For `C[C@H]1C[C@@H]2[C@](CF)(N=C(N)C(C)(C)S2(=O)=O)c2cc(Nc3nccc4cc(C#N)cnc34)ccc2O1` [Example 110, 8-(((4aR,6S,11bS)-2-amino-11b-(fluoromethyl)-3,3,6-trimethyl-4,4-dioxido-4a,5,6,11b-tetrahydro-3H-[1]benzoxepino[4,5-b][1,4]thiazin-10-yl)amino)-1,7-naphthyridine-3-carbonitrile], the IC50 on Cathepsin D (Cat D) (setting [3]) is > 400 µM; in assay [1], 0.013 µM; in assay [2], 0.021 µM.

For the compound `Cc1cc(C#N)cnc1C(=O)Nc1ccc2c(c1)[C@@]1(C)N=C(N)C(C)(C)S(=O)(=O)[C@]1(F)CCO2` [Example 111, N-((4aR,11bR)-2-amino-4a-fluoro-3,3,11b-trimethyl-4,4-dioxido-4a,5,6,11b-tetrahydro-3H-[1]benzoxepino[4,5-b][1,4]thiazin-10-yl)-5-cyano-3-methyl-2-pyridinecarboxamide], the half-inhibitory concentration (IC50) worked out at 331 µM on Cathepsin D (Cat D) (setting [3]), 0.005 µM in assay [1] and 0.019 µM in assay [2].

On to `CC1(C)C[C@@H]2[C@](C)(N=C(N)C(C)(C)S2(=O)=O)c2cc(Nc3nccc4cc(C#N)cnc34)ccc2O1` [Example 112, 8-(((4aR,11bR)-2-amino-3,3,6,6,11b-pentamethyl-4,4-dioxido-4a,5,6,11b-tetrahydro-3H-[1]benzoxepino[4,5-b][1,4]thiazin-10-yl)amino)-1,7-naphthyridine-3-carbonitrile], for which the figures for the IC50 (at Cathepsin D (Cat D) (setting [3]); in assay [1]; in assay [2]) were 316 µM, 0.003 µM and 0.002 µM, respectively.

Take `Cc1cc(C(F)(F)F)cnc1C(=O)Nc1ccc2c(c1)[C@@]1(C)N=C(N)C(C)(C)S(=O)(=O)[C@@H]1CC(C)(C)O2` [Example 113, N-((4aR,11bR)-2-amino-3,3,6,6,11b-pentamethyl-4,4-dioxido-4a,5,6,11b-tetrahydro-3H-[1]benzoxepino[4,5-b][1,4]thiazin-10-yl)-3-methyl-5-(trifluoromethyl)-2-pyridinecarboxamide]: the IC50 at Cathepsin D (Cat D) (setting [3]) was found to be 1200 µM; in assay [1], 0.006 µM; in assay [2] it was 0.002 µM.

As to `Cc1cc(Cl)cnc1C(=O)Nc1ccc2c(c1)[C@@]1(C)N=C(N)C(C)(C)S(=O)(=O)[C@@H]1CCS2` [Example 114, N-((4aR,11bR)-2-amino-3,3,11b-trimethyl-4,4-dioxido-4a,5,6,11b-tetrahydro-3H-[1]benzothiepino[4,5-b][1,4]thiazin-10-yl)-5-chloro-3-methyl-2-pyridinecarboxamide], the figures for the IC50 (on Cathepsin D (Cat D) (setting [3]); in assay [1]; in assay [2]) were 292 µM, 0.001 µM and 0.012 µM, respectively.

On to `Cc1cc(Cl)cnc1C(=O)Nc1ccc2c(c1)[C@@]1(C)N=C(N)C(C)(C)S(=O)(=O)[C@H]1CCS2` [Example 115, N-((4aS,11bR)-2-amino-3,3,11b-trimethyl-4,4-dioxido-4a,5,6,11b-tetrahydro-3H-[1]benzothiepino[4,5-b][1,4]thiazin-10-yl)-5-chloro-3-methyl-2-pyridinecarboxamide], for which the IC50 on Cathepsin D (Cat D) (setting [3]) amounted to 276 µM; in assay [1], 0.006 µM; in assay [2], 0.012 µM.
